Values quoted from earlier work, collected in patent US20090202442A1, “Enerceutical activation of the alternative cellular energy (ACE) pathway in therapy of diseases” (priority 2008, published 2009).

Tested on: herpes simplex virus (HSV), herpes zoster virus (HZV) and human papillomavirus (HPV) infections

## Cc1cc2nc3ccc(N(C)C)cc3nc2cc1N.Cl [neutral red]
Neutral red dye triggered UV fluorescence, HSV, HZV, HPV lesions
  healing of active skin lesions: successfully used in expediting the healing
Patients with prior history of recurrent herpes, treated when no active lesion present
  future outbreaks of recurrent herpes: successfully used in preventing future outbreaks
